Data as given in ChEMBL document CHEMBL4665865, “New series of isoxazole derivatives targeting EGFR-TK: Synthesis, molecular modeling and antitumor evaluation” (Bioorg Med Chem, 2020).

Experiments:
HCT-116 = experiment: Antitumor activity against human HCT-116 cells assessed as inhibition of cell viability by MTT assay; type: functional, cell-based
MCF7 = experiment: Antitumor activity against human MCF7 cells assessed as inhibition of cell viability by MTT assay; type: functional, cell-based
HepG2 = experiment: Antitumor activity against human HepG2 cells assessed as inhibition of cell viability by MTT assay; type: functional, cell-based
[1] = Lipophilicity, logP of the compound; type: physicochemical; conditions: octanol/water
[2] = target: Epidermal growth factor receptor (Homo sapiens, UniProt P00533); experiment: Inhibition of EGFR-TK (unknown origin) relative to control
Sequence of Epidermal growth factor receptor (P00533 whole entry): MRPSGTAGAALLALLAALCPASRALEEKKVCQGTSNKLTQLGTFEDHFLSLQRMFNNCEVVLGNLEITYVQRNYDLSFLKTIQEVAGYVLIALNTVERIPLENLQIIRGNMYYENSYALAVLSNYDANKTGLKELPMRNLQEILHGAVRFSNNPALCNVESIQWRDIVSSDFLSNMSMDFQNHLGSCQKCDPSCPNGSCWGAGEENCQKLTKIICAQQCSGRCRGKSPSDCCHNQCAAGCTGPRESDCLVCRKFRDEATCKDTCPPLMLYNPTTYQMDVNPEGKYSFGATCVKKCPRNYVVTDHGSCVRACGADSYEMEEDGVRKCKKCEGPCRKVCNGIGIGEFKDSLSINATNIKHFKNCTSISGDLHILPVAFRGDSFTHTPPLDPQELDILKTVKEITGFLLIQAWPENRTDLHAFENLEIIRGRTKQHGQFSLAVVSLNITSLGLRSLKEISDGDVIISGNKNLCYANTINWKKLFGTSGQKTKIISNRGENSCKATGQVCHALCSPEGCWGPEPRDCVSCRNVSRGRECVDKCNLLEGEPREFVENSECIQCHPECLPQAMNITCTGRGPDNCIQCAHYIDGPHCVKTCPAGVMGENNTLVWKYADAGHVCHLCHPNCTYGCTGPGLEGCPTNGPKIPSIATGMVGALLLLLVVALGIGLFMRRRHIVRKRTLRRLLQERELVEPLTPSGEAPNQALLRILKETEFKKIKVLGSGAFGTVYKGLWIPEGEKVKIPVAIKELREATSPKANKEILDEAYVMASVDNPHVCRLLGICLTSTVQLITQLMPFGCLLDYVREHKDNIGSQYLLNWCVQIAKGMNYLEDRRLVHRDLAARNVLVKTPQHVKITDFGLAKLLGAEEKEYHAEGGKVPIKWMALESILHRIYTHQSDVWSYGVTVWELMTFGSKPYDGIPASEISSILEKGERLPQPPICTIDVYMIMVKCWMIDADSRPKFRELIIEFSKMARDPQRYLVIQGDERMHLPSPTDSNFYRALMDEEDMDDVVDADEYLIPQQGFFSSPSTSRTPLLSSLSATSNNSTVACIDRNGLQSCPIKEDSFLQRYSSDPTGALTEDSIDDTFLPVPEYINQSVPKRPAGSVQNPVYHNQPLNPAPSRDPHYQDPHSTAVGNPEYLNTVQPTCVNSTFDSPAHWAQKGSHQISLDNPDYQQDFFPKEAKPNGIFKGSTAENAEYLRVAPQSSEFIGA

DNA topoisomerase 2-beta = DNA topoisomerase 2-beta (Homo sapiens, UniProt Q02880); experiment: Inhibition of Topoisomerase II beta (unknown origin) relative to control
Sequence of DNA topoisomerase 2-beta (Q02880 whole entry): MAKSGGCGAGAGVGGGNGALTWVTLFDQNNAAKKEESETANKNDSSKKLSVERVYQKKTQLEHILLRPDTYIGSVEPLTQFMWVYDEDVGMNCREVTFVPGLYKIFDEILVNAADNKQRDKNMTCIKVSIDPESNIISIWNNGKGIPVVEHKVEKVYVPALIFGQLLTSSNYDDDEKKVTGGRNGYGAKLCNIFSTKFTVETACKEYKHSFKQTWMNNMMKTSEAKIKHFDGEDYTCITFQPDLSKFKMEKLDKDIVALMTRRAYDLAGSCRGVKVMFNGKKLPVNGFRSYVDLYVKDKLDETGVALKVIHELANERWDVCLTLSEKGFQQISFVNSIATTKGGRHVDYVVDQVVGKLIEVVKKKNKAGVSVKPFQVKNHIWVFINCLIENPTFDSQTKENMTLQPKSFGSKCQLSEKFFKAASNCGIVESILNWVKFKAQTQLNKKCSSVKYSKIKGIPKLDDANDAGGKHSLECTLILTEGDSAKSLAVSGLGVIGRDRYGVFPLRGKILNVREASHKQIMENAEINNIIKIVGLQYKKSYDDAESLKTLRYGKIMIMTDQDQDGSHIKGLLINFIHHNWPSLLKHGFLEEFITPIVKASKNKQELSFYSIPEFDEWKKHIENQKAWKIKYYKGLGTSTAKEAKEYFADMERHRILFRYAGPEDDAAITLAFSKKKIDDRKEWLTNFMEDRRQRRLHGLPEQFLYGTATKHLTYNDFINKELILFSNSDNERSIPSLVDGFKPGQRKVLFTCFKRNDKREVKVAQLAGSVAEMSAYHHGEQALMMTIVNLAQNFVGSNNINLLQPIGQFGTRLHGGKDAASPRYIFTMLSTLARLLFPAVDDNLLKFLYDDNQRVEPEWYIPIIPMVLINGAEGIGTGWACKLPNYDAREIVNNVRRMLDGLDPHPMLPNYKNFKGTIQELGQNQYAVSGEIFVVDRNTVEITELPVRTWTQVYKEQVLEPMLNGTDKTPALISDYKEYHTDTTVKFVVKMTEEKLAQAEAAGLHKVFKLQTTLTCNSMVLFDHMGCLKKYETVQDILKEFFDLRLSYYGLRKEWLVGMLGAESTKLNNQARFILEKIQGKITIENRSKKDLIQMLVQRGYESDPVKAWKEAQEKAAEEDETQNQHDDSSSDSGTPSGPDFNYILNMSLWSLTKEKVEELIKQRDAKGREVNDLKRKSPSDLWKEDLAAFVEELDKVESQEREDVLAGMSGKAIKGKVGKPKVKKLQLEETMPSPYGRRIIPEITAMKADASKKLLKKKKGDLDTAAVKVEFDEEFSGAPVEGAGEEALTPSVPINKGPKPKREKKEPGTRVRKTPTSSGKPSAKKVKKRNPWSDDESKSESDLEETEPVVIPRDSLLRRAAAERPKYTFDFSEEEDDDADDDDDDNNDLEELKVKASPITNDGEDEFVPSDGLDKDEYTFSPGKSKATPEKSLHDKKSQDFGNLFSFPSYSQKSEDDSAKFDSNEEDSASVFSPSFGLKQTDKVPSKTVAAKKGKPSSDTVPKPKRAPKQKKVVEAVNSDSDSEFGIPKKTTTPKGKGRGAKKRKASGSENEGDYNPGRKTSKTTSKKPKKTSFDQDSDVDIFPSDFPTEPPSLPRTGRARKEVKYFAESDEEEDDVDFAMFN

| Compound | IC50 (HCT-116) [µM] | IC50 (MCF7) [µM] | IC50 (HepG2) [µM] | logP [1] | IC50 [2] [µM] | IC50 (DNA topoisomerase 2-beta) [µM] |
| --- | --- | --- | --- | --- | --- | --- |
| CC(C)(C)c1cc(NC2=NC(=O)/C(=C\c3c(F)cccc3Cl)S2)no1 | > 100 | 70.6 | 91.6 |  |  |  |
| Cc1cc(NC2=NC(=O)/C(=C\c3ccc4ccccc4c3)S2)no1 | > 100 | > 100 | > 100 | 4.16 |  |  |
| CC(C)(C)c1cc(NC2=NC(=O)/C(=C\c3ccc4ccccc4c3)S2)no1 | 94.2 | 67.6 | 79.2 | 5.89 |  |  |
| Cc1cc(NC2=NC(=O)CS2)no1 | 20.8 | 14.8 | 23.8 | 0.24 | 0.081 |  |
| CC(C)(C)c1cc(NC(=O)CN2CCN(c3ccccc3)CC2)no1 | 24.7 | 17.2 | 28.4 | 3.66 | 0.066 |  |
| CC(C)(C)c1cc(NC2=NC(=O)/C(=C\c3ccc(Br)s3)S2)no1 | > 100 | > 100 | > 100 |  |  |  |
| CN1CCN(CCC(=O)Nc2cc(C(C)(C)C)on2)CC1 | > 100 | 74.6 | > 100 | 1.86 |  |  |
| Cc1cc(NC(=O)CCCl)no1 | 75.3 | 48.9 | 62 |  |  |  |
| Cc1cc(NC2=NC(=O)/C(=C\c3ccc(Br)s3)S2)no1 | 36.6 | 24.2 | 32.8 |  |  |  |
| CC(C)(C)c1cc(NC2=NC(=O)/C(=C\c3ccc(Cl)c(Cl)c3)S2)no1 | 62.8 | 32.5 | 43.8 |  |  |  |
| CC(C)(C)c1cc(NC2=NC(=O)/C(=C\c3ccc(-c4ccccc4)cc3)S2)no1 | 86.4 | 59.3 | 84.7 | 6.5 |  |  |
| Cc1cc(NC(=O)CN2CCN(C)CC2)no1 | 88.2 | 65.1 | 63.5 | 0.23 |  |  |
| Cc1cc(NC2=NC(=O)/C(=C\c3ccc(Br)cc3)S2)no1 | 95 | 68.7 | 87.8 | 3.79 |  |  |
| Cc1cc(NC(=O)CCl)no1 | 13.1 | 10.4 | 11.1 | 0.55 | 0.106 |  |
| CC(C)(C)c1cc(N2C(=O)c3c(Br)c(Br)c(Br)c(Br)c3C2=O)no1 | > 100 | 64.9 | 90.4 |  |  |  |
| Cc1cc(N2C(=O)c3c(Br)c(Br)c(Br)c(Br)c3C2=O)no1 | > 100 | > 100 | > 100 |  |  |  |
| CC(C)(C)c1cc(NC2=NC(=O)CS2)no1 | 11.5 | 9.42 | 18.3 | 1.97 | 0.15 |  |
| Cc1cc(NC(=O)CCN2CCN(Cc3ccccc3)CC2)no1 | > 100 | 92.2 | 89.4 | 1.54 |  |  |
| CC(C)(C)c1cc(NC(=O)CN2CCN(Cc3ccccc3)CC2)no1 | 78.4 | 47.9 | 57.1 | 3.36 |  |  |
| Cc1ccc(/C=C2/SC(Nc3cc(C)on3)=NC2=O)cc1 | > 100 | > 100 | > 100 | 3.43 |  |  |
| CC(C)(C)c1cc(NC(=O)CCN2CCOCC2)no1 | > 100 | 78.2 | 93.5 |  |  |  |
| Cc1cc(NC(=O)CN2CCN(Cc3ccccc3)CC2)no1 | 73.2 | 44.8 | 50.3 | 1.63 |  |  |
| CC(C)(C)c1cc(NC(=O)CN2CCOCC2)no1 | 28 | 19.6 | 25 | 1.91 | 0.144 |  |
| CCN1CCN(CC(=O)Nc2cc(C(C)(C)C)on2)CC1 | 38.4 | 27.1 | 39.1 | 2.33 |  |  |

| Compound | IC50 (HCT-116) [µM] | IC50 (MCF7) [µM] | IC50 (HepG2) [µM] | logP [1] | IC50 [2] [µM] | IC50 (DNA topoisomerase 2-beta) [µM] |
| --- | --- | --- | --- | --- | --- | --- |
| COc1cccc2c1C(=O)c1c(O)c3c(c(O)c1C2=O)C[C@@](O)(C(=O)CO)C[C@@H]3O[C@H]1C[C@H](N)[C@H](O)[C@H](C)O1 [DOXORUBICIN] |  |  |  |  |  | 0.727 |
| Cc1ccc(/C=C2/SC(Nc3cc(C(C)(C)C)on3)=NC2=O)cc1 | 51.3 | 39.6 | 55.4 | 5.15 |  |  |
| Cc1cc(NC(=O)CCN2CCN(c3ccccc3)CC2)no1 | 46.1 | 29.1 | 51.8 | 1.84 |  |  |
| Cc1cc(NC(=O)CCN2CCOCC2)no1 | 89.6 | 51.9 | 71.5 |  |  |  |
| Cc1cc(N2C(=O)c3c(Cl)c(Cl)c(Cl)c(Cl)c3C2=O)no1 | > 100 | > 100 | > 100 |  |  |  |
| CC(C)(C)c1cc(NC(=O)CCN2CCN(c3ccccc3)CC2)no1 | 33.6 | 23 | 37.1 | 3.56 |  |  |
| Cc1cc(NC(=O)CCN2CCN(C)CC2)no1 | 75.8 | 44.2 | 56.7 | 0.14 |  |  |
| CC(C)(C)c1cc(NC(=O)CCl)no1 | 9.96 | 7.15 | 9.74 | 2.27 | 0.124 |  |
| CC(C)(C)c1cc(NC2=NC(=O)/C(=C\c3ccco3)S2)no1 | 66.7 | 42.9 | 68.2 |  |  |  |
| Cc1cc(NC2=NC(=O)/C(=C\c3ccc(Cl)c(Cl)c3)S2)no1 | 40.6 | 37.7 | 45.2 |  |  |  |
| CC(C)(C)c1cc(NC(=O)CCCl)no1 | 92.6 | 59.8 | 74.8 |  |  |  |
| CCN1CCN(CCC(=O)Nc2cc(C)on2)CC1 | 69 | 45.7 | 52.2 | 0.51 |  |  |
| Cc1cc(NC2=NC(=O)/C(=C\c3c(F)cccc3Cl)S2)no1 | 31.8 | 21.4 | 31.1 |  |  |  |
| Cc1cc(NC2=NC(=O)/C(=C\c3ccc(-c4ccccc4)cc3)S2)no1 | > 100 | > 100 | > 100 | 4.78 |  |  |
| CC(C)(C)c1cc(NC2=NC(=O)/C(=C\c3ccc(Br)cc3)S2)no1 | 64.4 | 36.1 | 48.2 | 5.51 |  |  |
| CCN1CCN(CCC(=O)Nc2cc(C(C)(C)C)on2)CC1 | 91.2 | 61.3 | 76.4 | 2.24 |  |  |
| Cc1cc(NC2=NC(=O)/C(=C\c3ccco3)S2)no1 | 58.3 | 30.3 | 41.6 |  |  |  |
| CN1CCN(CC(=O)Nc2cc(C(C)(C)C)on2)CC1 | 80.1 | 56.2 | 65.3 | 1.96 |  |  |
| CCN1CCN(CC(=O)Nc2cc(C)on2)CC1 | 17.6 | 12.6 | 19.5 | 0.61 | 0.081 |  |
| Cc1cc(NC(=O)CN2CCN(c3ccccc3)CC2)no1 | 26.2 | 16.7 | 35 | 1.93 | 0.064 |  |
| CC(C)(C)c1cc(N2C(=O)c3c(Cl)c(Cl)c(Cl)c(Cl)c3C2=O)no1 | > 100 | 88.3 | > 100 |  |  |  |
| Cc1cc(NC(=O)CN2CCOCC2)no1 | > 100 | 81.8 | > 100 | 0.19 |  |  |
| CC(C)(C)c1cc(NC(=O)CCN2CCN(Cc3ccccc3)CC2)no1 | 85.2 | 55.4 | 83 | 3.26 |  |  |
